Where two headings read alike, the source gives them in different places.
Columns and labels:
[1] = tested on: HeLa (human cervix carcinoma) cells; experiment: MTT cytotoxicity assay, HeLa; type: cell-based; conditions: read-out: IC50 HeLa
Procedure: (§1) The cytotoxicity of new derivatives of dicarboximides was tested in HeLa (cervix carcinoma cell line), K562 (myelogenous leukemia cell line), MOLT-4 (Human T-Lymphoid Cell Line), and HUVEC (normal endothelial) cells. First, the viability of cells was determined after 48 h incubation with the screened compounds used at the concentration of 100 μM (data not shown). […] Cells exposed to 1% DMSO (as vehicle) served as the control with 100% survival.
(§2) Human umbilical vein endothelial cells (Life Technologies, Carlsbad, CA, USA) were cultured (according to the manufacturer’s instructions) in Medium 200 containing low serum growth supplement; 1 × 10^4 cells were seeded on each well on a 96-well plate (Nunc, Roskilde, Denmark). The HeLa (human cervix carcinoma), K562, and MOLT-4 (leukemia) cells were cultured in RPMI 1640 medium supplemented with antibiotics and 10% fetal calf serum in a 5% CO2–95% air atmosphere; 7 × 10^3 cells were seeded on each well on a 96-well plate (Nunc). Twenty-four hours later, cells were exposed to the test compounds for additional 48 hours. Stock solutions of test compounds were freshly prepared in DMSO. The final concentrations of the compounds tested in the cell cultures were 2 × 10^−1, 1 × 10^−1, 5 × 10^−2, 1 × 10^−2, 1 × 10^−3, and 1 × 10^−4 mM. The concentration of DMSO in the cell culture medium was 1%. The values of IC50 (the concentration of test compound required to reduce the cell survival fraction to 50% of the control) were calculated from dose–response curves and used as a measure of cellular sensitivity to a given treatment. The cytotoxicity of all compounds was determined by the MTT [3-(4,5-dimethylthiazol-2-yl)-2,5-diphenyltetrazolium bromide; Sigma, St. Louis, MO, USA] assay. Briefly, after 24 or 48 h of incubation with drugs, the cells were treated with the MTT reagent, and incubation was continued for 2 h. MTT-formazan crystals were dissolved in 20% SDS and 50% DMF at pH 4.7, and absorbance was read at 570 and 650 nm on a microplate reader FLUOstar Omega (BMG Labtech, Offenburg, Germany). As a control (100% viability), we used cells grown in the presence of the vehicle (1% DMSO) only.

[2] = tested on: HUVEC (normal endothelial) cells; experiment: MTT cytotoxicity assay, HUVEC; type: cell-based; conditions: Homo sapiens, read-out: IC50 HUVEC
Procedure: as §1, §2

[3] = Lipophilicity (logkw) by reversed-phase chromatography (RP-HPLC); type: physicochemical; conditions: for logkw (Experimental): extrapolated to pure water; for logkw (Table S2): intercept of logk vs methanol fraction, n = 4
Source text: The main goal of the synthetic part was the synthesis of new derivatives of dicarboximides with decreased lipophilicity in comparison to the lead compounds, i.e., Ia–Ie and II. To reduce the lipophilicity of the new dicarboximides, a hydroxyalkyl chain connected with an aliphatic amine was introduced to the imides (Scheme 1). At the same time, the imide scaffold in derivatives from group 2 and 3 was the same as in lead compounds Ia–Ie and II, respectively (Figure 1). The structure of the imide was changed in derivatives 1b–1g. The lipophilicity of new derivatives was calculated using the Osiris Property Explorer program. For some compounds, lipophilicity was determined experimentally by a reversed-phase chromatography (detailed description is given in Materials and Methods and in the Supplementary Data, Table S2). Table 1 summarizes the calculated (clogP) and experimental (logkw) parameters of the lipophilicity of new derivatives.
The reversed-phase high-performance liquid chromatography (RP-HPLC) analysis was performed on a Merck–Hitachi LaChrom Elite System (Merck, Darmstadt, Germany) with diode array detector L-2455, thermostat L-2300, pump L-2130, and autosampler L-2200 and with the Waters XTerra MS RP-18 (3.5 μm, 150 × 4.6 mm) chromatographic column (Waters, Milford, MA, USA) as the stationary phase. The mobile phase consisted of methanol, water, and 0.1% (v/v) formic acid and was degassed by the use of the built-in membrane degasser. The methanol gradient grade for HPLC was purchased from Merck (Merck, Darmstadt, Germany) and formic acid from Polish Reagents (Polish Reagents, Gliwice, Poland); double-distilled water was used. Then, 5 μL of methanolic solutions (0.1%; m/v) of selected samples were applied to the chromatographic column by the use of an autosampler Hitachi L-2200 (LaChrom Elite, Hitachi-Merck, Darmstadt, Germany). The analysis was performed with the flow rate of 0.7 mL min^−1 in isocratic mode using various concentrations of organic modifier (methanol) in binary polar mobile phases; percentages of methanol in water were 45–70% (%, v/v) and changed by 5% per step. Chromatograms were detected at 254 nm and the temperature of the column was 25 °C. All experiments were repeated in triplicate, and the final results were taken to be the arithmetic means. Dead time was measured by the use of uracil (Calbiochem. Merck, Darmstadt, Germany). Statistical and regression analyses were performed using Statistica (ver. 13.3 for Windows). The chromatographic lipophilicity parameters ( logkW ) for selected samples were obtained by the extrapolation of the retention parameter logk to pure water, according to Equation (1):(1) logk=logkw−S·ϕ; where logkW is the value of the retention factor of a substance in pure water, S is the slope of the regression curve, and ϕ is the concentration of the organic modifier. The values of logk were calculated based on the raw HPLC data using the formula (2):(2) logk=logtR−t0/t0; where tR is the retention time and t0 is the dead retention time (determined for uracil).
The chromatographic lipophilicity parameters (logkௐ ) for selected samples were ob‐ tained by the extrapolation of the retention parame te r logk to pure water, according to […]
where logkௐ is the value of the retention factor of a substance in pure water, S is the slope of the regression curve, and φ is the concentration of the organic modifier. The values of logk were ca lcula ted based on the raw HPLC data using the formula: […]
logk ൌ log ሺ௧ೃ ି ௧బ௧బ ሻ (2) where tோ is the retention time and t଴ is the dead retention time (determined for ura‐ cil). The goodness of fit of the equation (1) to the experimental data was classified accord‐ ing to Jaffe (Jaffe, H. H. A Reexamination of the Hammet Equation. Chem. Rev. 1953, 53, In our RP‐HPLC experiments, the goodness of fit of the equation to the experi‐ mental data are excellent in most ca ses (r > 0.99). The F statistic val ues are, in all cases, […]

[4] = tested on: MOLT-4 (Human T-Lymphoid Cell Line); experiment: MTT cytotoxicity assay, MOLT-4; type: cell-based; conditions: read-out: IC50 MOLT-4
Procedure: as §1, §2

[5] = tested on: K562 (myelogenous leukemia cell line); experiment: MTT cytotoxicity assay, K562; type: cell-based, human; conditions: Homo sapiens, K562, 48 h, read-out: IC50 K562
Procedure: as §1, §2

[6] = 48 h incubation, average (SD) of three experiments
[7] = MOLT-4, 48 h incubation, average (SD) of three experiments

Structure (SMILES)	IC50 [1, 6]	IC50 [2, 6]	logkw (Experimental) [3]	logkw (Table S2) [3]	IC50 [4, 7]	IC50 [5, 6]	IC50 ([1]; 48 h)	IC50 ([2]; 48 h)	IC50 ([4]; MOLT-4, 48 h)	IC50 [5]
CCC12C(=O)C(CC)(C(c3ccccc3)=C1c1ccccc1)C1C(=O)N(CC(O)CN3CCOCC3)C(=O)C12 (stereo not drawn) [2g, 4-[-2-hydroxy-3-(morpholin-4-yl)propyl]-1,7-diethyl-8,9-diphenyl-4-azatricyclo[5.2.1.0^2,6]dec-8-ene-3,5,10-trione]	23 µM	17 µM	4.98	4.9763	18 µM	20 µM				
CN(C)CCN1C(=O)C2C(C1=O)C1(c3ccccc3)CC2(c2ccccc2)C(c2ccccc2)=C1c1ccccc1 (stereo not drawn) [II]	20 µM	4 µM			18 µM	16 µM				
CC(C)(C)NCC(O)CN1C(=O)C2C(C1=O)C1(C)C(=O)C2(C)C(c2ccccc2)=C1c1ccccc1 (stereo not drawn) [1c, 4-[3-(tert-butylamino)-2-hydroxypropyl]-1,7-dimethyl-8,9-diphenyl-4-azatricyclo [5.2.1.0^2,6]dec-8-ene-3,5,10-trione]	26 µM	23 µM	4.91	4.9077	28 µM	28 µM				
CCC12C(=O)C(CC)(C(c3ccccc3)=C1c1ccccc1)C1C(=O)N(CCN3CCCCC3)C(=O)C12 (stereo not drawn) [Ic]	18 µM	15 µM			15 µM	20 µM				
CC12C(=O)C(C)(C(c3ccccc3)=C1c1ccccc1)C1C(=O)N(CC(O)CN3CCOCC3)C(=O)C12 (stereo not drawn) [1g, 4-[-2-hydroxy-3-(morpholin-4-yl)propyl]-1,7-dimethyl-8,9-diphenyl-4-azatricyclo [5.2.1.0^2,6]dec-8-ene-3,5,10-trione]	> 100 µM		4.83	4.8345	> 100 µM	> 100 µM				
CCC12C(=O)C(CC)(C(c3ccccc3)=C1c1ccccc1)C1C(=O)N(CCN(C)C)C(=O)C12 (stereo not drawn) [Ia]			4.94	4.9430						
CC12C(=O)C(C)(C(c3ccccc3)=C1c1ccccc1)C1C(=O)N(CCN3CCOCC3)C(=O)C12 (stereo not drawn) [1j, 4-[2-(morpholin-4-yl)ethy]-1,7-dimethyl-8,9-diphenyl-4-azatricyclo[5.2.1.0^2,6]dec-8-ene-3,5,10-trione]	> 100 µM				> 100 µM	> 100 µM				
CC12C(=O)C(C)(C(c3ccccc3)=C1c1ccccc1)C1C(=O)N(CCN3CCCCC3)C(=O)C12 (stereo not drawn) [1i, 4-[2-(piperidin-1-yl)ethy]-1,7-dimethyl-8,9-diphenyl-4-azatricyclo[5.2.1.0^2,6]dec-8-ene-3,5,10-trione]	52 µM	23 µM			15 µM	30 µM				
CCCCN(CCCC)CC(O)CN1C(=O)C2C(C1=O)C1(C)C(=O)C2(C)C(c2ccccc2)=C1c1ccccc1 (stereo not drawn) [1e, 4-[3-(dibutylamino)-2-hydroxypropyl]-1,7-dimethyl-8,9-diphenyl-4-azatricyclo [5.2.1.0^2,6]dec-8-ene-3,5,10-trione]	3.2 µM	30 µM			8 µM	5.8 µM				
CCCCN(CCCC)CC(O)CN1C(=O)C2C(C1=O)C1(CC)C(=O)C2(CC)C(c2ccccc2)=C1c1ccccc1 (stereo not drawn) [2e, 4-[3-(dibutylamino)-2-hydroxypropyl]-1,7-diethyl-8,9-diphenyl-4-azatricyclo[5.2.1.0^2,6]dec-8-ene-3,5,10-trione]	19 µM	1.2 µM			3.1 µM	4.1 µM				
CCN(CC)CCN1C(=O)C2C(C1=O)C1(CC)C(=O)C2(CC)C(c2ccccc2)=C1c1ccccc1 (stereo not drawn) [Ib]			5.09	5.0889						
CCC12C(=O)C(CC)(C(c3ccccc3)=C1c1ccccc1)C1C(=O)N(CC(O)CNC(C)C)C(=O)C12 (stereo not drawn) [Ie]							10 µM	3.5 µM	15 µM	8 µM
CCC12C(=O)C(CC)(C(c3ccccc3)=C1c1ccccc1)C1C(=O)N(CCCN(C)C)C(=O)C12 (stereo not drawn) [Id]			5.05	5.0532						
CCCCN(CCCC)CC(O)CN1C(=O)C2C(C1=O)C1(c3ccccc3)CC2(c2ccccc2)C(c2ccccc2)=C1c1ccccc1 (stereo not drawn) [3e, 4-[3-(dibutylamino)-2-hydroxypropyl]-1,7,8,9-tetraphenyl-4-azatricyclo[5.2.1.0^2,6]dec-8-ene-3,5-dione]	40 µM	7 µM			5.4 µM	6 µM				
CC12C(=O)C(C)(C(c3ccccc3)=C1c1ccccc1)C1C(=O)N(CC(O)CN3CCCCC3)C(=O)C12 (stereo not drawn) [1f, 4-[2-hydroxy-3-(piperidin-1-yl)propyl]-1,7-dimethyl-8,9-diphenyl-4-azatricyclo[5.2.1.0^2,6]dec-8-ene-3,5,10-trione]	55 µM	21 µM			40 µM	18 µM				
CCNCC(O)CN1C(=O)C2C(C1=O)C1(c3ccccc3)CC2(c2ccccc2)C(c2ccccc2)=C1c1ccccc1 (stereo not drawn) [3b, 4-[3-(ethylamino)-2-hydroxypropyl]-1,7,8,9-tetraphenyl-4-azatricyclo[5.2.1.0^2,6]dec-8-ene-3,5-dione]	> 100 µM		6.31	6.3071	> 100 µM	> 100 µM				

Source: paper PMC8122671, “New Succinimides with Potent Anticancer Activity: Synthesis, Activation of Stress Signaling Pathways and Characterization of Apoptosis in Leukemia and Cervical Cancer Cells” (International Journal of Molecular Sciences, 2021)
